The target of experiment [1] is T1, Pol IV (E. coli DNA polymerase IV, DinB) (Escherichia coli, UniProt Q47155, T120P).
T1 construct: full-length, untagged as far as told, pET11a plasmid pRM112 (T7 promoter) and mutant derivatives, purified from E. coli; 351 residues
Briefly: pre-steady-state single-nucleotide primer extension, […] gel assay. The experiment is classed as biochemical. To be noted: apparent Kd for dNTP, kpol given as kcat, 200 nM DNA, 400 nM polymerase, 10 mM MgCl2, pH 7.5, 25°C.

Experiment [2] deals with T2, Pol IV (E. coli DNA polymerase IV, DinB) (Escherichia coli, UniProt Q47155).
T2 construct: full-length, untagged as far as told, pET11a plasmid pRM112 (T7 promoter) and mutant derivatives, purified from E. coli; 351 residues
T2 sequence (Q47155 1-351): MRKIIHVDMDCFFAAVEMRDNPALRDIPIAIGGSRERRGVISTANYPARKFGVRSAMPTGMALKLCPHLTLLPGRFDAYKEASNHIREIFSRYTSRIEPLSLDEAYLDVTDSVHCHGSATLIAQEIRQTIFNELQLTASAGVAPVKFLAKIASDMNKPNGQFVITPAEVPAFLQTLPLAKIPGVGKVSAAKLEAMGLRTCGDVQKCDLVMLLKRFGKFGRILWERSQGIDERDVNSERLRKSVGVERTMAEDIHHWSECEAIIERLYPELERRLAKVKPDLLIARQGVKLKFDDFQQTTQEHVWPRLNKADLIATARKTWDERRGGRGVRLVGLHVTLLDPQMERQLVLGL
The experiment is described as above. The experiment is classed as biochemical. To be noted: apparent Kd for dNTP, kpol given as kcat, 200 nM DNA, 400 nM polymerase, 10 mM MgCl2, pH 7.5, 25°C.

In experiment [3] the target is Pol III core complex (Pol IIIαεθ) (E. coli) (UniProt P10443).
The mark [4] stands for this setting: undamaged template 13/20A (opposite dA).
Where [5] appears, read: undamaged template 13/20G (opposite dG).

Where only a bound is given, the exact number is not on record here.

T1 sequence (Q47155 whole entry T120P): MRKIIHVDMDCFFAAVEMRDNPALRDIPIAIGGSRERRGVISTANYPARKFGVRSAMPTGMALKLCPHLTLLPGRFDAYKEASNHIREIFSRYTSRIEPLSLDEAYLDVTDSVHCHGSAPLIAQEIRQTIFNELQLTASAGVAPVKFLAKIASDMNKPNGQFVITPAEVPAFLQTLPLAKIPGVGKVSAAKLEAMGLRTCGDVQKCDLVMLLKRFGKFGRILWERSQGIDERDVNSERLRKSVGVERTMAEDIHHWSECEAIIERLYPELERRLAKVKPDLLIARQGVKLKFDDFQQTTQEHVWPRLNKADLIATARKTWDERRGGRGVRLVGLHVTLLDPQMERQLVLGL

On to `Nc1ncnc2c1ncn2[C@H]1C[C@H](O)[C@@H](COP(=O)(O)OP(=O)(O)OP(=O)(O)O)O1` [dATP], for which the Kd in experiment [1] (template 13/20Sp (opposite abasic site), above highest dNTP tested (500 μM range)) came out at 460 ± 230 µM.

In the case of `Cc1cn([C@H]2C[C@H](O)[C@@H](COP(=O)(O)OP(=O)(O)OP(=O)(O)O)O2)c(=O)[nH]c1=O` [dTTP], the Kd in experiment [1] (setting [4]) stood at 39 ± 9 µM; in experiment [2] (setting [4]), 207 ± 21 µM.

With `Nc1ccn([C@H]2C[C@H](O)[C@@H](COP(=O)(O)OP(=O)(O)OP(=O)(O)O)O2)c(=O)n1` [dCTP], the Kd in experiment [1] (setting [5]) is 14 ± 3.3 µM; in experiment [2] (setting [5]) it was more than 300 µM.

B1: Pol IV catalytic domain (Pol IV^CD; residues 1–230) (domain or fragment)
chain: MRKIIHVDMDCFFAAVEMRDNPALRDIPIAIGGSRERRGVISTANYPARKFGVRSAMPTGMALKLCPHLTLLPGRFDAYKEASNHIREIFSRYTSRIEPLSLDEAYLDVTDSVHCHGSATLIAQEIRQTIFNELQLTASAGVAPVKFLAKIASDMNKPNGQFVITPAEVPAFLQTLPLAKIPGVGKVSAAKLEAMGLRTCGDVQKCDLVMLLKRFGKFGRILWERSQGID
B1: in experiment [3], the Pol III processivity in the single-molecule primer extension assay; 900 nM Pol IV^CD (180-fold molar excess) with 5 nM Pol IIIαεθ, β clamp and τ3δδ'ψχ clamp loader (of the processivity without Pol IV^CD) came out at 0.5.
